Measured values: US8859578B2, “Natural product derivatives with antiprotozoal activity” (Radix Pharmaceuticals, Inc., priority 2012, dated 2014)
Several values for one entry are separate records, joined by “and”; a condition that tells them apart may be missing. Identical values can stand only once. Like-named read-outs stand apart in the source and are kept apart here.

Experiments:
P. falciparum K1 = assay: In vitro blood stage antimalarial activity, [3H]hypoxanthine uptake; format: cell-based; settings: Plasmodium falciparum
Experimental: (§1) In Vitro Blood Stage Antimalarial Efficacy Evaluation. New compounds were tested against a panel of strains of P. falciparum.
(§2) Test compounds were initially dissolved in DMSO and diluted 400 fold in RPMI 1640 culture medium supplemented with 25 mM Hepes, 32 mM NaHCO3 and 10% Albumax I (Gibco, NY). These solutions were subsequently serially diluted two-fold with a Beckman Biomek® 1000 Robot (Fullerton, Calif.) over 11 different concentrations. The parasites were exposed to serial dilutions of each compound for 48 hrs and incubated at 37° C. with 5% O2, 5% CO2 and 90% N2 prior to the addition of [^3H]hypoxanthine. After a further incubation of 18 hrs, parasite DNA was harvested from each microtiter well using Packard Filtermate™ 196 Harvester (Meriden, Conn.) onto glass filters. Uptake of [^3H]hypoxanthine was measured with a Packard TopCount Liquid Scintillation Counter (Packard Instrument Co.).

rodent P. berghei = assay: Antimalarial potency (MCD, MCureD) and therapeutic indices, rodent P. berghei; format: in vivo
Experimental: Antimalarial potency was measured by determination of the MCD (minimum clearance dose), a commonly used efficacy measurement. The primary therapeutic indices, which were obtained by using the MCDs as the effective parameters, were calculated. A secondary therapeutic indices measure of antimalarial potency was determined by use of the dose for the MCureD (minimum curative dose).

P. falciparum V1S = assay: microbe, parasite or virus in culture; format: cell-based; settings: Plasmodium falciparum
Experimental: as §1, §2

Plasmodium cynomolgi = assay: Radical curative activity in relapsed Rhesus monkeys; format: in vivo; settings: for Monkeys cured: co-administered with chloroquine, two monkeys; for Days post-treatment (to relapse): with CQ 10 mg/kg/day for 7 days, one value per monkey
Experimental: Compounds with antihypnozoite activity will delay the relapse or radically cure the infection. […] Relapse was expected in the control group. Relapse in the treated group indicates failure of the test compounds. […] Relapse in experimental animals and the second relapse of the control monkeys were treated with the standard 7 day oral CQ and primaquine (1.78 mg base/kg).

P. falciparum 3D7 = assay: In vitro blood stage antimalarial activity, [3H]hypoxanthine uptake; format: cell-based; settings: Plasmodium falciparum
Experimental: as §1, §2

P. falciparum DD2 = assay: as above; format: cell-based; settings: Plasmodium falciparum
Experimental: as §1, §2

P. falciparum TM6 = assay: as above; format: cell-based; settings: Plasmodium falciparum
Experimental: as §1, §2

P. falciparum PH3 = assay: as above; format: cell-based; settings: Plasmodium falciparum
Experimental: as §1, §2

P. falciparum TM4 = assay: as above; format: cell-based; settings: Plasmodium falciparum
Experimental: as §1, §2

[1] = tested on: Liver Stage of P. yoelii yoelii; assay: In vitro liver-stage antimalarial efficacy; format: cell-based; settings: Plasmodium yoelii
Experimental: In Vitro Liver-Stage Antimalarial Efficacy Evaluation. Any new desirable antimalarial drug should be broad spectrum: it should be active against both the blood stage and the liver stage of the parasite. New compounds were assessed on the Plasmodium yoelii liver stage in vitro. The liver stage of P. yoelii is a parasite of rodent extensively used as an experimental model for studying the initial phase of the malaria infection.

Plasmodium berghei = assay: Oral prophylactic test in mice; format: in vivo
[2] = tested on: chloroquine-resistant FVO strain of P. falciparum; assay: Efficacy against blood stages of P. falciparum in Aotus monkeys; format: in vivo; settings: oral for 3 days
From the text: In Vivo Efficacy Studies in Aotus Monkey Model. The monkeys selected for the study had active infections of the chloroquine-resistant FVO strain of P. falciparum.
Malaria-naive Panamanian owl monkeys (Aotus lemurinus lemurinus) were used as hosts for chioroquine-resistant P. falciparum. The chloroquine-resistant Vietnam Smith strain was used in the initial experiments. In subsequent studies, a recrudescent isolate from a Vietnam Smith strain infected Aotus monkey treated with chloroquine was used.
The inoculum size produced a parasitemia of at least 5×10^3/mm^3 by the fifth day postinoculation, at which time treatment was begun. Stock solutions of water-soluble drug were prepared at appropriate concentrations and maintained at 4° C. during the course of treatment. A suspension of water-insoluble drugs was prepared in 0.3% methylcellulose just prior to use. All drugs were administered by gastric intubation in a volume of 7.0 ml, followed by a 7.0-mi rinse with either water or 0.3% methylcellulose. Test drug was given orally for either three or seven consecutive days. […]
Giemsa-stained blood smears were prepared from all animals and examined daily beginning the day after inoculation until parasitemia was cleared and for at least seven days thereafter. […] Ten or less parasites on a thick blood film were recorded as <10. Parasitemia was enumerated and expressed as number of parasites/mm^3. […]

[3] = tested on: Plasmodium cynomolgi sporozoite; assay: Causal prophylactic activity in P. cynomolgi sporozoite-challenged Rhesus monkeys; format: in vivo; settings: PO 15 mg/kg, 1 daily for 3 days
From the text: Two monkeys were used in each test group. The control animals developed parasitemia in about 10 days after inoculation of about 1×10^6 P. cynomolgi sporozoites harvested from Anopheles dirus. All the monkeys received three treatments, once a day for three consecutive days beginning a day before (−1, 0, +1) the sporozoites challenge. The control monkeys (group 1) received HECT and the experimental animals received testing compound by using 8 Fr., 15-in. long nasogastric tubes.

in vivo = settings: Sprague-Dawley, rat, po

CCN(CC)Cc1cc(Nc2ccnc3cc(Cl)ccc23)ccc1O [Amodiaquine]
IC50 (P. falciparum K1; read-out: IC50): 21.2 ± 2.1 nM

C[C@H]1[C@H](OC(=O)CCC(=O)O)O[C@@H]2O[C@@]3(C)CC[C@H]4[C@H](C)CC[C@@H]1[C@@]24OO3 [Artesunate]
MCureD (minimum curative dose) (rodent P. berghei; route of administration iv): 25.4 mg/kg

CCN(CC)CCCC(C)Nc1ccnc2cc(Cl)ccc12 (stereo not drawn) [Chloroquine, reference compound]
IC50 (P. falciparum V1S): 152 ± 14.1 nM | MCureD (minimum curative dose) (rodent P. berghei; administered orally): None | Results (radical curative test) (Plasmodium cynomolgi; Rhesus monkeys, chloroquine alone, 10 mg/kg/day for 7 days): relapse | IC50 (P. falciparum 3D7): 9.7 ± 3.4 nM | IC50 (P. falciparum DD2): 45.8 ± 10.2 nM | IC50 (P. falciparum TM6): 96.4 ± 6.9 nM | IC50 (P. falciparum K1): 166 ± 19.3 nM | IC50 (P. falciparum PH3): 33.4 ± 9.1 nM | IC50 (P. falciparum TM4): 115 ± 12.7 nM

COc1cc2c(c3cc4c(nc13)C=C[C@@]1([C@H]3CC([C@H](O)[C@@H](N)C(C)C)OCO3)C=CCOC41)[C@@H]1OCOC[C@]1(C)N2 (stereo partly drawn) [Formula A]
IC50 (P. falciparum V1S): 0.21 ± 0.03 nM | IC50 [1]: 6.2 nM | Mice infected and treated/Mice surviving day 60 (Plasmodium berghei; day of treatment 1, dose 0.5 mg/kg oral): 5/5 | Mice infected and treated/Mice surviving day 60 (Plasmodium berghei; day of treatment 1, dose 2 mg/kg oral): 5/5 | Mice infected and treated/Mice surviving day 60 (Plasmodium berghei; day of treatment 1, dose 8 mg/kg oral): 5/5 | Mice infected and treated/Mice surviving day 60 (Plasmodium berghei; day of treatment 1, dose 32 mg/kg oral): 5/5 | Mice infected and treated/Mice surviving day 60 (Plasmodium berghei; day of treatment 2, dose 0.5 mg/kg oral): 5/5 | Mice infected and treated/Mice surviving day 60 (Plasmodium berghei; day of treatment 2, dose 2 mg/kg oral): 5/5 | Mice infected and treated/Mice surviving day 60 (Plasmodium berghei; day of treatment 2, dose 8 mg/kg oral): 5/5 | Mice infected and treated/Mice surviving day 60 (Plasmodium berghei; day of treatment 2, dose 32 mg/kg oral): 5/5 | Mice infected and treated/Mice surviving day 60 (Plasmodium berghei; day of treatment −1, dose 0.5 mg/kg oral): 5/5 | Mice infected and treated/Mice surviving day 60 (Plasmodium berghei; day of treatment −1, dose 2 mg/kg oral): 5/5 | Mice infected and treated/Mice surviving day 60 (Plasmodium berghei; day of treatment −1, dose 8 mg/kg oral): 5/5 | Mice infected and treated/Mice surviving day 60 (Plasmodium berghei; day of treatment −1, dose 32 mg/kg oral): 5/5 | Mice infected and treated/Mice surviving day 60 (Plasmodium berghei; day of treatment −2, dose 0.5 mg/kg oral): 5/5 | Mice infected and treated/Mice surviving day 60 (Plasmodium berghei; day of treatment −2, dose 2 mg/kg oral): 5/5 | Mice infected and treated/Mice surviving day 60 (Plasmodium berghei; day of treatment −2, dose 8 mg/kg oral): 5/5 | Mice infected and treated/Mice surviving day 60 (Plasmodium berghei; day of treatment −2, dose 32 mg/kg oral): 5/5 | Protection from malaria (oral prophylactic activity) (Plasmodium berghei; mice, single dose of 0.5 mg/kg within 2 days pre-infection through 2 days post-infection): completely protected from malaria | dosage needed to cure 50% of animals [2]: 2 mg/kg/day | dosage needed to cure 100% of animals [2]: 8 mg/kg/day | MCureD (minimum curative dose) (rodent P. berghei; administered orally): 12.6 mg/kg | Delay of patency compared with untreated control monkeys [3]: delayed patency of treated monkeys more than a month | Parasite patency (days postinoculation) ([3]; one value per monkey, control 8 days, 15 mg/kg): 42 days and 60 days | Monkeys cured (Plasmodium cynomolgi; 15 mg/kg/day level): one out of two monkeys | Monkeys cured (Plasmodium cynomolgi; 30 mg/kg/day level): both monkeys | Days post-treatment (to relapse) (Plasmodium cynomolgi; Rhesus monkeys, PO 15 mg/kg 1 daily for 3 days): 44 days and no relapse | Days post-treatment (to relapse) (Plasmodium cynomolgi; Rhesus monkeys, PO 30 mg/kg 1 daily for 3 days): no relapse | IC50 (P. falciparum 3D7; read-out: IC50): 0.12 ± 0.03 nM | IC50 (P. falciparum DD2; read-out: IC50): 0.17 ± 0.04 nM | IC50 (P. falciparum TM6; read-out: IC50): 0.27 ± 0.05 nM | IC50 (P. falciparum K1; read-out: IC50): 0.35 ± 0.06 nM | IC50 (P. falciparum PH3; read-out: IC50): 0.27 ± 0.05 nM | IC50 (P. falciparum TM4; read-out: IC50): 0.41 ± 0.09 nM | NOAEL at 2 weeks (in vivo): > 100 mg/kg/day | MTD at 2 weeks (in vivo; MTD (maximum tolerated dose)): > 500 mg/kg

COc1cc(NC(C)CCCN)c2ncccc2c1 (stereo not drawn) [Primaquine, reference compound]
IC50 [1]: 76 nM
